We go through three molecules from ChEMBL document CHEMBL1201862, “PubChem BioAssay data set” (2004).

Calls of active or inactive are those of the source.

Chain of 5'-AMP-activated protein kinase catalytic subunit alpha-1 (Q13131 whole entry): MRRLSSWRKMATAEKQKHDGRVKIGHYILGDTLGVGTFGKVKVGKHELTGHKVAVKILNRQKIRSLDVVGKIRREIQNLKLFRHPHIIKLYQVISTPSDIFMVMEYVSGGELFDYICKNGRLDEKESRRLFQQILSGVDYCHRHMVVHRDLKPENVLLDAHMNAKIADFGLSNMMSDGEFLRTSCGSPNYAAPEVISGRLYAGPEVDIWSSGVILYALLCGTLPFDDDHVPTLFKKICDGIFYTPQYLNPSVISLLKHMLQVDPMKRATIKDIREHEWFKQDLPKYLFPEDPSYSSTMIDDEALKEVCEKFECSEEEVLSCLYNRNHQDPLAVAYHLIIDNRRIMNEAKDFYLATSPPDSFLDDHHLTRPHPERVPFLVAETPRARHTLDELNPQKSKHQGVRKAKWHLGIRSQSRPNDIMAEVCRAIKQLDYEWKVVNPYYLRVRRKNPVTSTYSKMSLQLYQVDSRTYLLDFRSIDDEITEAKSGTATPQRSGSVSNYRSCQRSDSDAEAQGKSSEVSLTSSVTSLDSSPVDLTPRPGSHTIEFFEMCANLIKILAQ

The target of one assay is T1, Serine/threonine-protein kinase D3 (Homo sapiens, UniProt O94806).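 Also: determined within a kinase panel screen, with PRKCN as the panel member.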
T1 sequence (O94806 whole entry): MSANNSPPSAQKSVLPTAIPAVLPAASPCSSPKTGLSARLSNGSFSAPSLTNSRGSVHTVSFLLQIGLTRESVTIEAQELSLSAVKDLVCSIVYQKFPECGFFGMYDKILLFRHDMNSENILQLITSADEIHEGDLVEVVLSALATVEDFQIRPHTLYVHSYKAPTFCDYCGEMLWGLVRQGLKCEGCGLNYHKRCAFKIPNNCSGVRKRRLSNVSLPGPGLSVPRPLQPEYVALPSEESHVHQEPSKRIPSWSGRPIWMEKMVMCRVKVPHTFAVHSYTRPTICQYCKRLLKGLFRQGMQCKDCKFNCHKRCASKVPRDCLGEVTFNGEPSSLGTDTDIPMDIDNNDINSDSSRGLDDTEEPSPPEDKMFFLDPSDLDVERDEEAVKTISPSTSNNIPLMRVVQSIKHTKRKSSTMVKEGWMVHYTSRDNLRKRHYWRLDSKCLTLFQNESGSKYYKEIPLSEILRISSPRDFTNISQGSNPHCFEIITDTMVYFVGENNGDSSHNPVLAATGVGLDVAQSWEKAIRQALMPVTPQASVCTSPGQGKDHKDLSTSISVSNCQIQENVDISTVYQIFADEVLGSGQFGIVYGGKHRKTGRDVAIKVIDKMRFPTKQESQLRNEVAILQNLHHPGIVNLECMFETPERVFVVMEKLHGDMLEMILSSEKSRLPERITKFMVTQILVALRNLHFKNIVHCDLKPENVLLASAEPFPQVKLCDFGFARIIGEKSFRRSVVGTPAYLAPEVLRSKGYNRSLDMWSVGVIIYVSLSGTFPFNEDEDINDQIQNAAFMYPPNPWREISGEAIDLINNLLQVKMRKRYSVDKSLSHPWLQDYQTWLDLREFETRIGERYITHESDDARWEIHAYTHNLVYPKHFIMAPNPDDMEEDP
It is filed as functional.
`Cc1ccc(C)c(NC(=O)c2cc(-c3ccco3)nc3ccccc23)c1`: the Ki – broadly, the equilibrium dissociation constant of an inhibitor or competing ligand from its target – is 1580 nM (active).

Turning to `COc1ccc(C2=NNc3cccc4c(OC)ccc2c34)cc1OC`, the Ki was 398 nM (active).

On to `CN1CCC(c2c(O)cc(O)c3c(=O)cc(-c4ccccc4Cl)oc23)C(O)C1` (centres undefined), for which the Ki is 316 nM (active).

The target of the next assay is Death-associated protein kinase 3 (Homo sapiens, UniProt O43293). It is filed as functional.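 Also: measured as one member of a kinome-wide profiling panel.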
Chain of Death-associated protein kinase 3 (O43293 whole entry): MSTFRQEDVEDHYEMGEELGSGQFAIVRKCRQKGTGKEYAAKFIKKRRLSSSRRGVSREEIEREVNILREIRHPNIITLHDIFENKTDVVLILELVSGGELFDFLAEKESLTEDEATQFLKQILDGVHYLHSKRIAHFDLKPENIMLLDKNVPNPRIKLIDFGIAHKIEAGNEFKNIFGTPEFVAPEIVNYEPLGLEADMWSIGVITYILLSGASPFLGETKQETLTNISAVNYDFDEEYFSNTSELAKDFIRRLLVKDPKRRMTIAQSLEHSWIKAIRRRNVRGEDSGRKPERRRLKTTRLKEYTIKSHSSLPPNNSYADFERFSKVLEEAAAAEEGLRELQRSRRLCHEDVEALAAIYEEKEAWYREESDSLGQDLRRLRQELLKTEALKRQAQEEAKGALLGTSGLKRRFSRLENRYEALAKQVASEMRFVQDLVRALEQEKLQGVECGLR
As for `Cc1ccc(C)c(NC(=O)c2cc(-c3ccco3)nc3ccccc23)c1`, the Ki was 5.01 µM (active).

As for `COc1ccc(C2=NNc3cccc4c(OC)ccc2c34)cc1OC`, the Ki is 0.794 µM (active).

`CN1CCC(c2c(O)cc(O)c3c(=O)cc(-c4ccccc4Cl)oc23)C(O)C1` (centres undefined): the Ki was > 3.16 µM (inactive).

The next assay has as its target 5'-AMP-activated protein kinase catalytic subunit alpha-1 (Homo sapiens, UniProt Q13131). The format is functional.
For `Cc1ccc(C)c(NC(=O)c2cc(-c3ccco3)nc3ccccc23)c1`, the Ki was 2 µM (active).

For the molecule `COc1ccc(C2=NNc3cccc4c(OC)ccc2c34)cc1OC`, the Ki was 0.794 µM (active).

Take `CN1CCC(c2c(O)cc(O)c3c(=O)cc(-c4ccccc4Cl)oc23)C(O)C1` (centres undefined): the Ki was > 2.51 µM (inactive).

A further assay deals with Activated CDC42 kinase 1 (Homo sapiens, UniProt Q07912). Nature of the assay: Navigating the Kinome. Panel member name: ACK1. It is filed as functional.
Regarding `Cc1ccc(C)c(NC(=O)c2cc(-c3ccco3)nc3ccccc23)c1`, the Ki is > 3.98 µM (inactive).

`COc1ccc(C2=NNc3cccc4c(OC)ccc2c34)cc1OC`: the Ki was 1.26 µM (active).

In the case of `CN1CCC(c2c(O)cc(O)c3c(=O)cc(-c4ccccc4Cl)oc23)C(O)C1` (centres undefined), the Ki was > 3.98 µM (inactive).

The target of another assay is T2, Aurora kinase A (Homo sapiens, UniProt O14965).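 Also: value from the Navigating the Kinome kinase panel profiling, panel entry STK6.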
T2 sequence (O14965 whole entry): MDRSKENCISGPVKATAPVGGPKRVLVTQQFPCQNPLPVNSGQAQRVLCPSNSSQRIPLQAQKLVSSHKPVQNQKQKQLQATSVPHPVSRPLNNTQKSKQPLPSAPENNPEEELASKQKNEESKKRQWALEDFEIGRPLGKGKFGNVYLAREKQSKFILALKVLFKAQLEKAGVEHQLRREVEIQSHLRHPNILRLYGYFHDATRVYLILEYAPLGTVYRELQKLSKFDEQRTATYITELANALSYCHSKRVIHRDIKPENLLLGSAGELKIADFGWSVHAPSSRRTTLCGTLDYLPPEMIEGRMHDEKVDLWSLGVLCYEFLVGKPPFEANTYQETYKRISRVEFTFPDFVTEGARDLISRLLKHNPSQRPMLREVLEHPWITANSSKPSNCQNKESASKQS
The format is functional.
For `Cc1ccc(C)c(NC(=O)c2cc(-c3ccco3)nc3ccccc23)c1`, the Ki is 1 µM (active).

With `COc1ccc(C2=NNc3cccc4c(OC)ccc2c34)cc1OC`, the Ki is > 1.58 µM (inactive).

For `CN1CCC(c2c(O)cc(O)c3c(=O)cc(-c4ccccc4Cl)oc23)C(O)C1` (centres undefined), the Ki is > 1.58 µM (inactive).

In another assay the target is Focal adhesion kinase 1 (Homo sapiens, UniProt Q05397). The format is functional.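 Also: measured as one member of a kinome panel.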
Chain of Focal adhesion kinase 1 (Q05397 whole entry): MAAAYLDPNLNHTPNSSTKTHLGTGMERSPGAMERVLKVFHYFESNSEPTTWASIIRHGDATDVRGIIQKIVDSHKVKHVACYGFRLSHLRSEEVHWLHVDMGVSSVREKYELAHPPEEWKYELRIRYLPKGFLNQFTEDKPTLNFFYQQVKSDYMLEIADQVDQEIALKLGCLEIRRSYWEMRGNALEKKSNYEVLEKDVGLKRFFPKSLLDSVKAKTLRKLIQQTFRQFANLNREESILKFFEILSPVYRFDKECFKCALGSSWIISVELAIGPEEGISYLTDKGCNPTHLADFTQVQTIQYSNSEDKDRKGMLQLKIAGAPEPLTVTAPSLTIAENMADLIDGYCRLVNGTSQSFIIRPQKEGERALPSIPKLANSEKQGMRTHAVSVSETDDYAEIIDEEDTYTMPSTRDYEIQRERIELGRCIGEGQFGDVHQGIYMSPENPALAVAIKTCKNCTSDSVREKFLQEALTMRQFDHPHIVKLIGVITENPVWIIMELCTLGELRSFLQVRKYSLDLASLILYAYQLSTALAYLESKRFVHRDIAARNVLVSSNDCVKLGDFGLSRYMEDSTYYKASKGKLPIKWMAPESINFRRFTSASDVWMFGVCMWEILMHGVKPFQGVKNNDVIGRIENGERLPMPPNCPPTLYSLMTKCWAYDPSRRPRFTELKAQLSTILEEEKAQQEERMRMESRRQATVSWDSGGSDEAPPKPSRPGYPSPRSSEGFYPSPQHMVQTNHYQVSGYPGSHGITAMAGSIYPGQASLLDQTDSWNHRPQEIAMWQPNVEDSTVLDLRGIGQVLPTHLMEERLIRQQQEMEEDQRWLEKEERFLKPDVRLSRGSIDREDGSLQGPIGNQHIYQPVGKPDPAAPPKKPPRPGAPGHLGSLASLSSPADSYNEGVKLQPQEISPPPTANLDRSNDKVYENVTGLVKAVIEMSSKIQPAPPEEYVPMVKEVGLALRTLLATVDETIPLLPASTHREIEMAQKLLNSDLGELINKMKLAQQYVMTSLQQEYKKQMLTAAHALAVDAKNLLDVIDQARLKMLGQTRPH
For the molecule `Cc1ccc(C)c(NC(=O)c2cc(-c3ccco3)nc3ccccc23)c1`, the Ki was 3.16 µM (active).

With `COc1ccc(C2=NNc3cccc4c(OC)ccc2c34)cc1OC`, the Ki was 0.794 µM (active).

Take `CN1CCC(c2c(O)cc(O)c3c(=O)cc(-c4ccccc4Cl)oc23)C(O)C1` (centres undefined): the Ki is > 3.98 µM (inactive).

The target in a further assay is LIM domain kinase 1 (Homo sapiens, UniProt P53667). Nature of the assay: Navigating the Kinome. Panel member name: LIMK1. It is filed as functional.
Chain of LIM domain kinase 1 (P53667 whole entry, the tested form may be a part): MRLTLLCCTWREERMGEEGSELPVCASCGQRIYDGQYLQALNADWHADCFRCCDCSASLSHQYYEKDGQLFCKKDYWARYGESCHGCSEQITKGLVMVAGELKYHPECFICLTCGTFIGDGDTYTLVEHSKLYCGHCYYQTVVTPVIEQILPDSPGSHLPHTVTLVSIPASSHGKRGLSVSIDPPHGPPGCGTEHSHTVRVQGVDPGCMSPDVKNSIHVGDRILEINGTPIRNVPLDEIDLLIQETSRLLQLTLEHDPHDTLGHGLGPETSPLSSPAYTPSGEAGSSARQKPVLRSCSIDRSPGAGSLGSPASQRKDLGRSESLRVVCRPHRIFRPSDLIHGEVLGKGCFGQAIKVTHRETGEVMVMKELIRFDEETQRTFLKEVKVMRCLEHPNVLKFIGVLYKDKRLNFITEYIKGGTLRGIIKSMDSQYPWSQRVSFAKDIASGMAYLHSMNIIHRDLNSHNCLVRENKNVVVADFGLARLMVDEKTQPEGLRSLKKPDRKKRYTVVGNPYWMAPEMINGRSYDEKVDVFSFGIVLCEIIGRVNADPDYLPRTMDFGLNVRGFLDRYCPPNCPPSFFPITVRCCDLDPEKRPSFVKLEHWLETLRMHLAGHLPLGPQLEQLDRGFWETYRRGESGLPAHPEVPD
With `Cc1ccc(C)c(NC(=O)c2cc(-c3ccco3)nc3ccccc23)c1`, the Ki was 316 nM (active).

As for `COc1ccc(C2=NNc3cccc4c(OC)ccc2c34)cc1OC`, the Ki was 31.6 nM (active).

As for `CN1CCC(c2c(O)cc(O)c3c(=O)cc(-c4ccccc4Cl)oc23)C(O)C1` (centres undefined), the Ki is > 3160 nM (inactive).

In the next assay the target is Vascular endothelial growth factor receptor 1 (Homo sapiens, UniProt P17948). It is filed as functional.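 Also: measured within a kinome-wide profiling panel, FLT1 as the panel member.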
Chain of Vascular endothelial growth factor receptor 1 (P17948 whole entry): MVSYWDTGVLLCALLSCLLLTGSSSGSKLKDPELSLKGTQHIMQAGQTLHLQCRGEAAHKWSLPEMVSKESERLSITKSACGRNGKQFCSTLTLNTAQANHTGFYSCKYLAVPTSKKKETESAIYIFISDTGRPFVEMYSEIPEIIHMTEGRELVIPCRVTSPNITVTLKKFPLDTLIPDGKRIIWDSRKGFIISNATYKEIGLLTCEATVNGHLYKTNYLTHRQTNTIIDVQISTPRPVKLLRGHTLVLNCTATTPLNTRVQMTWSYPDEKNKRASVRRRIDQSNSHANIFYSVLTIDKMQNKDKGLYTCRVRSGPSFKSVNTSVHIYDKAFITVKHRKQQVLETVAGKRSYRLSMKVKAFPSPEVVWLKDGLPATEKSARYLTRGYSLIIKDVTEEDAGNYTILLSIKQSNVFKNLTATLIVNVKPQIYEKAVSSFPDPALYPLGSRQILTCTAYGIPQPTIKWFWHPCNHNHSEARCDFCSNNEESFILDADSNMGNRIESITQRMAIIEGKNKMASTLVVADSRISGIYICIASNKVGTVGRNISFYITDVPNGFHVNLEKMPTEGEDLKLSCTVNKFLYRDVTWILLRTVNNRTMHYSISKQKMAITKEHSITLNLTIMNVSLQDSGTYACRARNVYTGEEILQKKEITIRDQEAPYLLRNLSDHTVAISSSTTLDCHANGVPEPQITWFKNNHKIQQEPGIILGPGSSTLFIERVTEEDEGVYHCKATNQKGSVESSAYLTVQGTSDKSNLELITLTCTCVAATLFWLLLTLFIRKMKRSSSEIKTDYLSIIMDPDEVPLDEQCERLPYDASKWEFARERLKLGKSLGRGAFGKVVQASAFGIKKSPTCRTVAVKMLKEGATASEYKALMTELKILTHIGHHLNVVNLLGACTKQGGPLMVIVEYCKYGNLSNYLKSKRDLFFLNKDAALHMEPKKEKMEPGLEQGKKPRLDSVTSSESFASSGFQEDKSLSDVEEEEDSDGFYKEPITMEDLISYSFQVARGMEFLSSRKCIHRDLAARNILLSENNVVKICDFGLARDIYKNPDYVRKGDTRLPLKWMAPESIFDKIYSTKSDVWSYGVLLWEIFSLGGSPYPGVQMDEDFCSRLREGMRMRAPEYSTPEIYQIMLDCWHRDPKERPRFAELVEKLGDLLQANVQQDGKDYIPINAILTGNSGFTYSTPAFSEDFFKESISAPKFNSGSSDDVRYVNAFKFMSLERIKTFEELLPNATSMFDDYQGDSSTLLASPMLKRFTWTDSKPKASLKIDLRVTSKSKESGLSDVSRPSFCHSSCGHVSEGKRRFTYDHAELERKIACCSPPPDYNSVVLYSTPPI
For the molecule `Cc1ccc(C)c(NC(=O)c2cc(-c3ccco3)nc3ccccc23)c1`, the Ki was 3.16 µM (active).

For `COc1ccc(C2=NNc3cccc4c(OC)ccc2c34)cc1OC`, the Ki was 0.316 µM (active).

Regarding `CN1CCC(c2c(O)cc(O)c3c(=O)cc(-c4ccccc4Cl)oc23)C(O)C1` (centres undefined), the Ki is > 2 µM (inactive).

The target in a further assay is Dual specificity protein kinase CLK2 (Homo sapiens, UniProt P49760). The format is functional.
Chain of Dual specificity protein kinase CLK2 (P49760 whole entry): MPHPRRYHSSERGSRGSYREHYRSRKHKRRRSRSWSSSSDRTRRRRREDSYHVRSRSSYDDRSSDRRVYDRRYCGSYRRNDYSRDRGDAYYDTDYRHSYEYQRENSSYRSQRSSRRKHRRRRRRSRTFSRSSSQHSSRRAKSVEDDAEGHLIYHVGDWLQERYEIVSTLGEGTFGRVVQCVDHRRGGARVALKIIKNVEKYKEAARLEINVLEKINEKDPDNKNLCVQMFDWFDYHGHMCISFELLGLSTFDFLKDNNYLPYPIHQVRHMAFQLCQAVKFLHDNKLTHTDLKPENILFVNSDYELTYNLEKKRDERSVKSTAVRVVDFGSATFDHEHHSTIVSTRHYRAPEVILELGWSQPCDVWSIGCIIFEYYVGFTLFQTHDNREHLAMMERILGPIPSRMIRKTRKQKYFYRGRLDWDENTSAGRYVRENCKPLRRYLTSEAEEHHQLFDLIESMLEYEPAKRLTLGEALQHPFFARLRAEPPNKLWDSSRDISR
Turning to `Cc1ccc(C)c(NC(=O)c2cc(-c3ccco3)nc3ccccc23)c1`, the Ki is > 3.98 µM (inactive).

With `COc1ccc(C2=NNc3cccc4c(OC)ccc2c34)cc1OC`, the Ki was 0.316 µM (active).

As for `CN1CCC(c2c(O)cc(O)c3c(=O)cc(-c4ccccc4Cl)oc23)C(O)C1` (centres undefined), the Ki was > 3.16 µM (inactive).

Another assay deals with Dual specificity protein kinase CLK4 (Homo sapiens, UniProt Q9HAZ1). The format is functional.
Chain of Dual specificity protein kinase CLK4 (Q9HAZ1 whole entry): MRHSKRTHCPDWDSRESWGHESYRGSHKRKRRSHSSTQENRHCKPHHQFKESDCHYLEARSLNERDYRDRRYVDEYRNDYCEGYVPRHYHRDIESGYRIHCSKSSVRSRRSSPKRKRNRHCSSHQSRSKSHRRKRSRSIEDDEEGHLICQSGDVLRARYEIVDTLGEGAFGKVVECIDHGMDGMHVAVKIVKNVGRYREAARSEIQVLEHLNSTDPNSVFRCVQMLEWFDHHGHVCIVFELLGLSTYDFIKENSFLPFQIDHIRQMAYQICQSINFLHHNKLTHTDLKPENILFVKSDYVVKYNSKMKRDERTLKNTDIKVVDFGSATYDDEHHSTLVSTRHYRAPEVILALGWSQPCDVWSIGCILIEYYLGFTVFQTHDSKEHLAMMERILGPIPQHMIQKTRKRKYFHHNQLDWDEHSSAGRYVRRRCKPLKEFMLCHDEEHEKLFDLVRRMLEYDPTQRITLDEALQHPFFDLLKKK
As for `Cc1ccc(C)c(NC(=O)c2cc(-c3ccco3)nc3ccccc23)c1`, the Ki was 398 nM (active).

Consider `COc1ccc(C2=NNc3cccc4c(OC)ccc2c34)cc1OC`, for which the Ki is 63.1 nM (active).

On to `CN1CCC(c2c(O)cc(O)c3c(=O)cc(-c4ccccc4Cl)oc23)C(O)C1` (centres undefined), for which the Ki was 1260 nM (active).

Another assay deals with Leukocyte tyrosine kinase receptor (Homo sapiens, UniProt P29376). The experiment in a line: Navigating the Kinome. Panel member name: LTK. It is filed as functional.
For the molecule `Cc1ccc(C)c(NC(=O)c2cc(-c3ccco3)nc3ccccc23)c1`, the Ki was 1000 nM (active).

For the molecule `COc1ccc(C2=NNc3cccc4c(OC)ccc2c34)cc1OC`, the Ki is 25.1 nM (active).

For `CN1CCC(c2c(O)cc(O)c3c(=O)cc(-c4ccccc4Cl)oc23)C(O)C1` (centres undefined), the Ki was 631 nM (active).

The next assay has as its target T3, Serine/threonine-protein kinase Chk1 (Homo sapiens, UniProt O14757).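 Also: measured as one member of a kinome-wide kinase profiling panel.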
T3 sequence (O14757 whole entry): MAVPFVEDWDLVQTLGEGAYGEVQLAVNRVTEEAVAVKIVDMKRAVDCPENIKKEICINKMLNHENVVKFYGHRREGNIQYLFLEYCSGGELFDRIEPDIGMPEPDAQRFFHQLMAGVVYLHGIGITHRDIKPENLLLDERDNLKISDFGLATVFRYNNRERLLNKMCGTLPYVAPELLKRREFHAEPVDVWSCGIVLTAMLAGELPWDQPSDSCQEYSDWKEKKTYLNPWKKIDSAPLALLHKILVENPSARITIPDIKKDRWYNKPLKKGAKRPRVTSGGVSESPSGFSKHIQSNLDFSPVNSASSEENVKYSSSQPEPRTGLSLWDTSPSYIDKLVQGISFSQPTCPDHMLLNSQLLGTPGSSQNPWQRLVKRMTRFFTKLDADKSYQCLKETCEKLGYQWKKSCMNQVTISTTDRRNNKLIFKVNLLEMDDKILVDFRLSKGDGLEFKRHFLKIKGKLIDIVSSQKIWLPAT
The format is functional.
As to `Cc1ccc(C)c(NC(=O)c2cc(-c3ccco3)nc3ccccc23)c1`, the Ki was 316 nM (active).

On to `COc1ccc(C2=NNc3cccc4c(OC)ccc2c34)cc1OC`, for which the Ki was 31.6 nM (active).

Regarding `CN1CCC(c2c(O)cc(O)c3c(=O)cc(-c4ccccc4Cl)oc23)C(O)C1` (centres undefined), the Ki is > 6310 nM (inactive).

The target in another assay is Tyrosine-protein kinase BTK (Homo sapiens, UniProt Q06187). The format is functional.
Turning to `Cc1ccc(C)c(NC(=O)c2cc(-c3ccco3)nc3ccccc23)c1`, the Ki was 3.98 µM (active).

Regarding `COc1ccc(C2=NNc3cccc4c(OC)ccc2c34)cc1OC`, the Ki is 0.631 µM (active).

`CN1CCC(c2c(O)cc(O)c3c(=O)cc(-c4ccccc4Cl)oc23)C(O)C1` (centres undefined): the Ki is > 3.98 µM (inactive).
